Source: publication PMC12552119, “Tailored structured peptide design with a key-cutting machine approach” (Nature Machine Intelligence, 2025)
“Also recorded” adds a separate entry of the source. Where two headings read alike, the source gives them in different places. Where no end group is shown, it is not given here.

Key:
[1] = system: A. baumannii ATCC 19606; assay type: cell-based, Acinetobacter baumannii
Protocol: (§1) Fig. 2 Antimicrobial activity and secondary structure of computationally designed peptides. a, Structure prediction of the synthesized peptides. b, Heatmap of the antimicrobial activities of the peptides against 11 clinically relevant pathogens, including four strains resistant to conventional antibiotics. Briefly, 10^6 bacterial cells and serially diluted peptides (1-64 μmol l^−1) were incubated at 37 °C. One day after treatment, the optical density at 600 nm was measured in a microplate reader to evaluate bacterial growth in the presence of the peptides. MIC values in the heatmap are the mode of the replicates in each condition. c–f, Ternary plots showing the percentage of secondary structure for each peptide (at 50 μmol l^−1) in four different solvents: water (c), 60% TFE in water (d), 10 mmol l^−1 SDS in water (e) and 50% methanol (MeOH) in water (f). Secondary structure fractions were calculated using the BeStSel server. […] An error of one column cannot be fully excluded. / Panel b: AT1, AT2, AT3 and all blank cells print no number and are left out.
(§2) In this study, we used the following pathogenic bacterial strains: A. baumannii ATCC 19606, E. coli AIC221 (E. coli MG1655 phnE_2::FRT (control strain for AIC222)) and E. coli AIC222 (E. coli MG1655 pmrA53 phnE_2::FRT (polymyxin resistant; colistin-resistant strain)), Klebsiella pneumoniae ATCC 13883, Pseudomonas aeruginosa PAO1, P. aeruginosa PA14 and Staphylococcus aureus ATCC 12600. All pathogens were grown in Luria–Bertani (LB) broth and on LB agar. Pseudomonas isolation (P. aeruginosa strains) agar plates were exclusively used in the case of Pseudomonas species. In all the experiments, bacteria were inoculated from one isolated colony and grown overnight (16 h) in liquid medium at 37 °C. On the following day, inocula were diluted 1:100 in fresh media and incubated at 37 °C to mid-logarithmic phase.
(§3) Broth microdilution assays[64] were conducted to establish the MIC for each peptide. Peptides were added to untreated polystyrene 96-well microtiter plates and serially diluted twofold in sterile water, ranging from 1 to 64 μmol l^−1. A bacterial inoculum at a concentration of 10^6 CFU ml^−1 in LB medium was then mixed in a 1:1 ratio with the peptide solution. […] Each assay was performed in three independent replicates.

[2] = system: E. coli AIC221; assay type: cell-based, Escherichia coli; details: AIC221, 24 h
Protocol: as §1, with “out. […]” for “out.”

[3] = system: K. pneumoniae ATCC 13883; assay type: cell-based, Klebsiella pneumoniae; details: ATCC 13883, 24 h
Protocol: as §1, §2, §3

[4] = system: A. baumannii ATCC 19606; experiment: Cytoplasmic-membrane depolarization, DiSC3-5; assay type: cell-based, Acinetobacter baumannii; details: DiSC3-5 fluorescence, peptides at their MIC, 60 min
Protocol: Fig. 3 Mechanism of action and cytotoxic activity of designed peptides. a, To assess whether the peptides act on bacterial membranes, all active peptides against A. baumannii American Type Culture Collection (ATCC) 19606 were subjected to outer-membrane permeabilization, and peptides active against A. baumannii ATCC 19606 and vancomycin-resistant E. faecalis ATCC 700802 were tested in cytoplasmic-membrane depolarization assays. b, The fluorescent probe NPN was used to assess membrane permeabilization induced by the tested peptides. c,d, The fluorescent probe DiSC3-5 was used to evaluate membrane depolarization caused by the designed peptides in A. baumannii ATCC 19606 (c) and vancomycin-resistant E. faecalis ATCC 700802 (d). […] All experiments were performed in three independent replicates. […]
The cytoplasmic-membrane depolarization assay was performed using the membrane-potential-sensitive dye DiSC3-5. […] Membrane depolarization was then followed by reading changes in the fluorescence (λex = 622 nm, λem = 670 nm) over time for 60 min. The relative fluorescence was calculated using the untreated control (buffer + bacteria + fluorescent dye) as baseline and the following equation was applied to reflect the percentage difference between the baselines and the sample: percentagedifference=100×(fluorescencesample−fluorescenceuntreatedcontrol)/fluorescenceuntreatedcontrol. […]

[5] = system: P. aeruginosa PAO1; assay type: cell-based, Pseudomonas aeruginosa; details: PAO1, 24 h
Protocol: as §1, §2
(§4) Broth microdilution assays[64] were conducted to establish the MIC for each peptide. […]

[6] = Mouse weight in the skin abscess model; parameters: species or system CD-1 mice; details: in vivo
Protocol: (§5) The backs of six-week-old female CD-1 mice under anaesthesia were shaved and injured with a superficial linear skin abrasion made with a needle. An aliquot of A. baumannii ATCC 19606 (2 × 10^6 CFU ml^−1; 20 μl) previously grown in LB medium until 0.5 optical density ml^−1 (optical value at 600 nm) and then washed twice with sterile PBS (pH 7.4, 9,391 g for 3 min) was added to the scratched area. Peptides diluted in sterile water at MIC value were administered to the wound area 1 h after the infection. Two and four days after infection animals were euthanized, and the scarified skin was excised, homogenized using a bead beater (25 Hz for 20 min), tenfold serially diluted, and plated on McConkey agar plates for CFU quantification. The experiments were performed using six mice per group. Mice were housed in groups of three and maintained under a 12-h light/dark cycle at 22 °C with humidity controlled at 50%. The skin abscess infection mouse model was revised and approved by University Laboratory Animal Resources from the University of Pennsylvania (protocol 806763).
(§6) Figure S6. Cytotoxicity and anti-infective activity of designed peptides. (a) Cytotoxic effects of increasing concentrations ([…]) of each peptide on human embryonic kidney (HEK293T) cells after 24 h of treatment. Mouse weight was monitored throughout the duration of the (b) skin abscess model (4 days total) and the (e) deep thigh infection model (8 days total) to assess potential toxic effects of both the bacterial load and the designed peptides. (c) Schematic of the neutropenic thigh infection mouse model, where the designed peptides were administered intraperitoneally. Anti-infective activity against A. baumannii ATCC 19606 was evaluated 4 days after intraperitoneal peptide administration (n = 6). (d) Four days after intraperitoneal injection, NE2 at its MIC (32 µmol L-1) inhibited by […]
(§7) Statistical significance in panel d was determined using one-way ANOVA followed by Dunnett’s test; P values are shown in the graphs. […]

[7] = system: E. faecium ATCC 700221 - VRE; assay type: cell-based; details: ATCC 700221, 24 h
Protocol: as §1, §3

[8] = system: A. baumannii ATCC 19606; experiment: Skin abscess infection mouse model, bacterial load; assay type: in vivo, CD-1 mice; details: single dose at MIC on the wound 1 h after infection, n = 6
Protocol: Fig. 4 Anti-infective activity of designed peptides in a skin scarification animal model. a, Schematic representation of the skin abscess mouse model used to assess the anti-infective activity of the designed peptides (n = 6) against A. baumannii ATCC 19606. […] Statistical significance in panel b was determined using one-way ANOVA followed by Dunnett’s test; P values are shown in the graphs. In the violin, the centre line represents the […], the box limits the first and third quartiles and the whiskers (minima and maxima) represent 1.5 × the interquartile range. Panel a created with BioRender.com. Source data
as §5, with “The experiments were performed using six mice per group. Mice were housed in groups of three and maintained under a 12-h light/dark cycle at 22 °C with humidity controlled at 50%. The skin abscess infection mouse model was revised and approved by University Laboratory Animal Resources from the University of Pennsylvania (protocol 806763).” left out

[9] = system: A. baumannii ATCC 19606; experiment: Deep thigh infection mouse model, bacterial load; assay type: in vivo, CD-1 mice; details: n = 6; for reduction of A. baumannii bacterial load, deep thigh infection model: neutropenic mice, peptides intraperitoneally
Protocol: (§8) Six-week-old female CD-1 mice were rendered neutropenic by two doses of cyclophosphamide (150 mg kg^−1 and 100 mg kg^−1) applied intraperitoneally 3 and 1 d before the infection. On day 4 of the experiment, the mice were infected in their right thighs with a 100-μl intramuscular injection of the A. baumannii ATCC 19606 in PBS at concentration of 5 × 10^6 CFU ml^−1. The bacterial cells were grown in LB broth, washed twice with PBS solution and diluted at the desired concentration. The peptides were administrated intraperitoneally 2 h after the infection. Two days after infection mice were euthanized, and the tissue from the right thigh was excised, homogenized using a bead beater (25 Hz for 20 min), tenfold serially diluted, and plated on McConkey agar plates for bacterial colony counting. The experiments were performed using six mice per group. Mice were housed in groups of three and maintained under a 12-h light/dark cycle at 22 °C with humidity controlled at 50%. The deep thigh infection mouse model was revised and approved by University Laboratory Animal Resources from the University of Pennsylvania (protocol 807055).
as §6, §7

[10] = system: E. coli ATCC 11775; assay type: cell-based, Escherichia coli; details: ATCC 11775, 24 h
Protocol: as §1
Broth microdilution assays[64] were conducted to establish the MIC for each peptide. Peptides were added to untreated polystyrene 96-well microtiter plates and serially diluted twofold in sterile water, ranging from 1 to 64 μmol l^−1. […]

[11] = assay type: in vivo, CD-1 mice; details: deep thigh infection model
Protocol: as §8, with “Mice were housed in groups of three and maintained under a 12-h light/dark cycle at 22 °C with humidity controlled at 50%. The deep thigh infection mouse model was revised and approved by University Laboratory Animal Resources from the University of Pennsylvania (protocol 807055).” left out
Figure S6. […] Mouse weight was monitored throughout the duration of the (b) skin abscess model (4 days total) and the (e) deep thigh infection model (8 days total) to assess potential toxic effects of both the bacterial load and the designed peptides. […] Anti-infective activity against A. baumannii ATCC 19606 was evaluated 4 days after intraperitoneal peptide administration (n = 6). […]
as §7

[12] = system: HEK293T cells; details: cited from earlier work
Protocol: Cytotoxicity was evaluated using human embryonic kidney (HEK293T) cells (Fig. 3e)[45].

[13] = system: P. aeruginosa PA14; assay type: cell-based, Pseudomonas aeruginosa; details: PA14, 24 h
Protocol: as §1, §2, §4

[14] = broth microdilution, LB, 10^6 CFU ml^-1, peptides 1-64 μmol l^-1, 24 h, 37 °C, OD600, mode of three replicates

| Sequence | MIC ([1]; ATCC 19606, 24 h) [µM] | MIC [2] [µM] | MIC [3] [µM] | cytoplasmic-membrane depolarization [4] | MIC [5] [µM] | MIC [1, 14] [µM] | weight loss or skin damage [6] | MIC [7] [µM] | reduction of A. baumannii bacterial load, skin abscess model [8] | inhibition of the A. baumannii ATCC19606 infection against the untreated control ([9]; four days after intraperitoneal injection, at its MIC) | reduction of A. baumannii bacterial load, deep thigh infection model [9] | MIC [10] [µM] | weight loss or skin damage [11] | cytotoxicity of the parental peptide [12] | MIC [13] [µM] |
| --- | --- | --- | --- | --- | --- | --- | --- | --- | --- | --- | --- | --- | --- | --- | --- |
| KFKLIVHYRICK [NG3] | 32 | 8 | 16 | particularly effective | – | – | – | – | – | – | – | – | – | – | – |
| KWKARIQFKAAH [NE2] | 32 | – | 16 | – | 64 | 32 | No weight loss or skin damage | 32 | up to two orders of magnitude; also recorded: inhibited the proliferation of the infection for up to 4 d after treatment | one order of magnitude | up to two orders of magnitude | 16 | No weight loss or skin damage | – | – |
| KWRLLIRWRIQK [IDR-2009] | – | – | – | – | – | – | – | – | – | – | – | – | – | did show cytotoxicity | – |
| HWKLIVRWKVQH [NG1] | 4 | – | 4 | – | 32 | 4 | No weight loss or skin damage | 4 | up to two orders of magnitude; also recorded: inhibited the proliferation of the infection for up to 4 d after treatment | – | up to two orders of magnitude | 16 | No weight loss or skin damage | – | 16 |
